The source of these data is patent publication US20260062443A1 (ALEXION PHARMACEUTICALS, INC., priority 2022, published 2026).

The structures appear in SMILES notation.

The assay concerns the target T1, Human complement C1s enzyme (Homo sapiens, UniProt P09871).
T1 sequence (P09871 438-688 limits assumed): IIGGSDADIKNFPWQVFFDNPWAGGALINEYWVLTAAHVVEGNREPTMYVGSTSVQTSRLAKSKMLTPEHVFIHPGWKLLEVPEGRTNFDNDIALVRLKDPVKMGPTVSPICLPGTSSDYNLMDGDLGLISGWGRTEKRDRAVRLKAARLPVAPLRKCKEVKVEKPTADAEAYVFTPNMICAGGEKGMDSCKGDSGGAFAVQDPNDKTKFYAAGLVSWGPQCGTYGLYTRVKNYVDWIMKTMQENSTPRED
T1 sequence (P09871 16-437 partner limits assumed): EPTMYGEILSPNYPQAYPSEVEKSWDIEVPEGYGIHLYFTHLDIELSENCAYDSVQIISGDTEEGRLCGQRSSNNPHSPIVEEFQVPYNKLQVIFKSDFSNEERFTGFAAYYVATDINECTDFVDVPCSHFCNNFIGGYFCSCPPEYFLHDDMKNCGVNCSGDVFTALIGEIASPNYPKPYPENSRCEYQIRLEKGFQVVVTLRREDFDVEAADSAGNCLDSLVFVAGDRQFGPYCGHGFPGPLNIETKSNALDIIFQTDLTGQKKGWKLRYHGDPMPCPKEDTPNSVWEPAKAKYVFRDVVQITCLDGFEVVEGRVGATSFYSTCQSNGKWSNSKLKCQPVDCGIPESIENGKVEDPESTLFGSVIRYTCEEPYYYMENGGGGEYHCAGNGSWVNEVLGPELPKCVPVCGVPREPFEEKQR
Briefly: Human C1s enzyme assay. The format is biochemical. The settings on record: human complement C1s enzyme 1.16 nM, substrate Z-L-Lys-SBzl 100 μM, 5 min preincubation; read-out: IC50 (Stars), C1s Inhibiting Activity. The protocol: Other standard complement assays are also available.
Human complement C1s enzyme (purified from human serum, Complement Technology, Inc.) at 1.16 nM final concentration was incubated with test compound at various concentrations for 5 min at room temperature in 50 mM Tris, 1 M NaCl, pH 7.5. A synthetic substrate Z-L-Lys-SBzl and DTNB (Ellman's reagent) were added to final concentrations of 100 μM each. Absorbance at 405 nm (A405) was recorded at 30 second intervals for 30 min using a microplate spectrophotometer. IC50 values were calculated by nonlinear regression of complement C1 s reaction rates as a function of test compound concentration.
ND indicates a compound for which the IC50 value is not determined.

On to `C[C@@]12C[C@@H]1N(C(=O)CNC(=O)c1cccc(Oc3ccccc3)c1)[C@H](C(=O)NCc1cc3cnccn3c1)C2` [Compound 277, (1S,3S,5S)-5-methyl-2-((3-phenoxybenzoyl)glycyl)-N-(pyrrolo[1,2-a]pyrazin-7-ylmethyl)-2-azabicyclo[3.1.0]hexane-3-carboxamide], for which the 50% inhibitory concentration (IC50) was < 100 nM.

With `C[C@@]12C[C@@H]1N(C(=O)CNC(=O)c1cccc(Oc3ccccc3)c1)[C@H](C(=O)NCc1cc3cnccc3s1)C2` [Compound 246, (1S,3S,5S)-5-methyl-2-((3-phenoxybenzoyl)glycyl)-N-(thieno[3,2-c]pyridin-2-ylmethyl)-2-azabicyclo[3.1.0]hexane-3-carboxamide], the 50% inhibitory concentration (IC50) is < 100 nM.

As for `COC[C@@]1(F)C[C@@H](C(=O)N[C@H](C)c2cc3cnccc3[nH]2)N(C(=O)CNC(=O)c2ccc(-c3ccccc3)cc2)C1` [Compound 83, (2S,4R)-N-((R)-1-(1H-pyrrolo[3,2-c]pyridin-2-yl)ethyl)-1-(([1,1′-biphenyl]-4-carbonyl)glycyl)-4-fluoro-4-(methoxymethyl)pyrrolidine-2-carboxamide], the IC50 was 100 to 1000 nM.

Take `O=C(NCC(=O)N1C[C@H](OC(F)F)C[C@H]1C(=O)NCc1ccc2c(n1)CCN2)c1ccc2c(c1)Oc1ccccc1S2` [Compound 264, (2S,4R)-4-(difluoromethoxy)-N-((2,3-dihydro-1H-pyrrolo[3,2-b]pyridin-5-yl)methyl)-1-((phenoxathiine-3-carbonyl)glycyl)pyrrolidine-2-carboxamide]: the IC50 was > 1000 nM.

As for `Cn1c(CNC(=O)[C@@H]2CC3(CN2C(=O)CNC(=O)c2ccc4c(c2)Oc2ccccc2S4)OCCO3)cc2cnccc21` [Compound 46, (S)-N-((1-methyl-1H-pyrrolo[3,2-c]pyridin-2-yl)methyl)-7-((phenoxathiine-3-carbonyl)glycyl)-1,4-dioxa-7-azaspiro[4.4]nonane-8-carboxamide], the 50% inhibitory concentration (IC50) is > 1000 nM.

`O=C(NCC(=O)N1CC2(C[C@H]1C(=O)NCc1nc3cnccc3s1)OCCO2)c1ccc2c(c1)Oc1ccccc1S2` [Compound 41, (S)-7-((phenoxathiine-3-carbonyl)glycyl)-N-(thiazolo[4,5-c]pyridin-2-ylmethyl)-1,4-dioxa-7-azaspiro[4.4]nonane-8-carboxamide]: the IC50 is > 1000 nM.

`O=C(NCC(=O)N1CCC[C@H]1C(=O)NCc1cc2cnccc2[nH]1)c1ccc2c(c1)Oc1ccccc1S2` [Compound 188, (S)-N-((1H-pyrrolo[3,2-c]pyridin-2-yl)methyl)-1-((phenoxathiine-3-carbonyl)glycyl)pyrrolidine-2-carboxamide]: the IC50 was < 100 nM.

In the case of `O=C(NCC(=O)N1C[C@H](OC(F)F)C[C@H]1C(=O)NCc1ccc2[nH]ccc2c1)c1ccc2c(c1)Oc1ccccc1S2` [Compound 195, (2S,4R)-N-((1H-indol-5-yl)methyl)-4-(difluoromethoxy)-1-((phenoxathiine-3-carbonyl)glycyl)pyrrolidine-2-carboxamide], the half-inhibitory concentration (IC50) was > 1000 nM.

Turning to `Cc1nccc2[nH]c(CNC(=O)[C@@H]3C[C@]4(C)C[C@@H]4N3C(=O)CNC(=O)c3ccc4c(c3)Oc3ccccc3S4)cc12` [Compound 267, (1S,3S,5S)-5-methyl-N-((4-methyl-1H-pyrrolo[3,2-c]pyridin-2-yl)methyl)-2-((phenoxathiine-3-carbonyl)glycyl)-2-azabicyclo[3.1.0]hexane-3-carboxamide], the IC50 was > 1000 nM.

In the case of `CCc1ccc(Oc2cccc(C(=O)NCC(=O)N3C[C@H](OC(F)F)C[C@H]3C(=O)NCc3cc4cnccc4[nH]3)c2)s1` [Compound 368, (2S,4R)-4-(difluoromethoxy)-1-[2-[[3-[(5-ethyl-2-thienyl)oxy]benzoyl]amino]acetyl]-N-(1H-pyrrolo[3,2-c]pyridin-2-ylmethyl)pyrrolidine-2-carboxamide], the IC50 was < 100 nM.

In the case of `COC[C@@]1(F)C[C@@H](C(=O)N[C@H](C)c2cc3cnccc3[nH]2)N(C(=O)CNC(=O)c2ccc(-c3ccc(F)cc3F)cc2)C1` [Compound 70, (2S,4R)-N-((R)-1-(1H-pyrrolo[3,2-c]pyridin-2-yl)ethyl)-1-((2′,4′-difluoro-[1,1′-biphenyl]-4-carbonyl)glycyl)-4-fluoro-4-(methoxymethyl)pyrrolidine-2-carboxamide], the half-maximal inhibitory concentration (IC50) is > 1000 nM.

Consider `O=C(NCC(=O)N1CC2(C[C@H]1C(=O)NCc1cc3c(Cl)nccc3[nH]1)OCCO2)c1ccc2c(c1)Oc1ccccc1S2` [Compound 42, (S)-N-((4-chloro-1H-pyrrolo[3,2-c]pyridin-2-yl)methyl)-7-((phenoxathiine-3-carbonyl)glycyl)-1,4-dioxa-7-azaspiro[4.4]nonane-8-carboxamide], for which the concentration for half-maximal inhibition (IC50) is > 1000 nM.

In the case of `O=C(NCC(=O)N1CC2(C[C@H]1C(=O)NCc1cc3cnccc3[nH]1)OCCO2)c1ccc2c(c1)oc1ccccc12` [Compound 213, (S)-N-((1H-pyrrolo[3,2-c]pyridin-2-yl)methyl)-7-((dibenzo[b,d]furan-3-carbonyl)glycyl)-1,4-dioxa-7-azaspiro[4.4]nonane-8-carboxamide], the IC50 was < 100 nM.

In the case of `O=C(NCC(=O)N1CC2(C[C@H]1C(=O)NCc1cc3ccccc3[nH]1)OCCO2)c1ccc(Oc2ccccc2)cc1` [Compound 11, (S)-N-((1H-indol-2-yl)methyl)-7-((4-phenoxybenzoyl)glycyl)-1,4-dioxa-7-azaspiro[4.4]nonane-8-carboxamide], the IC50 is > 1000 nM.

As for `O=C(NCC(=O)N1C[C@H](OC(F)F)C[C@H]1C(=O)NCc1cc2cnccc2[nH]1)c1cc(-c2ccccc2)cs1` [Compound 379, (2S,4R)-N-((1H-pyrrolo[3,2-c]pyridin-2-yl)methyl)-4-(difluoromethoxy)-1-((4-phenylthiophene-2-carbonyl)glycyl)pyrrolidine-2-carboxamide], the concentration for half-maximal inhibition (IC50) is < 100 nM.

In the case of `C[C@@]12C[C@@H]1N(C(=O)CN1Cc3cc(-c4ccc(F)cc4F)ccc3C1=O)[C@H](C(=O)NCc1cc3cnccc3[nH]1)C2` [Compound 129, (1S,3S,5S)-N-((1H-pyrrolo[3,2-c]pyridin-2-yl)methyl)-2-(2-(5-(2,4-difluorophenyl)-1-oxoisoindolin-2-yl)acetyl)-5-methyl-2-azabicyclo[3.1.0]hexane-3-carboxamide], the IC50 was < 100 nM.

In the case of `C[C@@H](NC(=O)[C@@H]1C[C@]2(C)C[C@@H]2N1C(=O)CNC(=O)c1ccc2c(c1)-c1ccccc1C2(F)F)c1cc2cnccc2[nH]1` [Compound 76, (1S,3S,5S)-N-((R)-1-(1H-pyrrolo[3,2-c]pyridin-2-yl)ethyl)-2-((9,9-difluoro-9H-fluorene-3-carbonyl)glycyl)-5-methyl-2-azabicyclo[3.1.0]hexane-3-carboxamide], the half-maximal inhibitory concentration (IC50) is > 1000 nM.

As to `Nc1nc(=O)oc2cc(CNC(=O)[C@@H]3C[C@@H](OC(F)F)CN3C(=O)CNC(=O)c3ccc4c(c3)Oc3ccccc3S4)ccc12` [Compound 248, (2S,4R)-N-((4-amino-2-oxo-2H-benzo[e][1,3]oxazin-7-yl)methyl)-4-(difluoromethoxy)-1-((phenoxathiine-3-carbonyl)glycyl)pyrrolidine-2-carboxamide], the IC50 is > 1000 nM.

For the molecule `O=C(NCC(=O)N1C[C@H](OC(F)F)C[C@H]1C(=O)NCc1cc2cnccc2[nH]1)c1cccc(Oc2ccc(C3CC3)cc2)c1` [Compound 294, (2S,4R)-N-((1H-pyrrolo[3,2-c]pyridin-2-yl)methyl)-1-((3-(4-cyclopropylphenoxy)benzoyl)glycyl)-4-(difluoromethoxy)pyrrolidine-2-carboxamide], the 50% inhibitory concentration (IC50) was < 100 nM.

In the case of `O=C(NCC(=O)N1CC[C@H](c2ccccc2)[C@H]1C(=O)NCc1cc2cnccc2[nH]1)c1ccc2c(c1)Oc1ccccc1S2` [Compound 214, (2S,3R)-N-((1H-pyrrolo[3,2-c]pyridin-2-yl)methyl)-1-((phenoxathiine-3-carbonyl)glycyl)-3-phenylpyrrolidine-2-carboxamide], the IC50 was > 1000 nM.

As to `O=C(NCC(=O)N1CC[C@@H](O)[C@H]1C(=O)NCc1cc2cnccc2[nH]1)c1ccc(Oc2ccccc2)cc1` [Compound 151, (2S,3R)-N-((1H-pyrrolo[3,2-c]pyridin-2-yl)methyl)-3-hydroxy-1-((4-phenoxybenzoyl)glycyl)pyrrolidine-2-carboxamide], the half-inhibitory concentration (IC50) is 100 to 1000 nM.

As for `Cc1cc(C(=O)NCC(=O)N2C[C@H](OC(F)F)C[C@H]2C(=O)N[C@H](C)c2cc3cnccc3[nH]2)ccc1Oc1ccc(F)cc1` [Compound 143, (2S,4R)-N-((R)-1-(1H-pyrrolo[3,2-c]pyridin-2-yl)ethyl)-4-(difluoromethoxy)-1-((4-(4-fluorophenoxy)-3-methylbenzoyl)glycyl)pyrrolidine-2-carboxamide], the concentration for half-maximal inhibition (IC50) is < 100 nM.

The term IC50 denotes the point on the concentration scale where inhibition reaches its midpoint.
